Drawing on US6384040B1, “Condensed 4-thioxopyrimidine derivatives as microbicides” (Syngenta Crop Protection, Inc., priority 1998, dated 2002), this text covers control activity and melting point for 4 molecules.

The test system of one data set is Uncinula necator. The experiment in a line: Action against Uncinula necator on vines. Format: in vivo. The conditions noted are these: vine cuttings sprayed with 200 ppm a.i., infected 24 hours later, evaluation ca. 14 days after infection. How it is done: Example B-3: Action Against Uncinula necator on Vines
5 week old vine cuttings are sprayed with a spray mixture (200 ppm a.i.) prepared from a wettable powder formulation of the test compound. The plants are infected 24 hours later by conidias from strongly infested vine leafs that are shaken off over the test plants. The plants are then incubated at 26° C. and 60% relative humidity. The evaluation of the fungal infestation is made ca. 14 days after infection.

On to `CCCOc1nc2sc(Cl)cc2c(=S)n1CCC` [Compound 1, 6-Chloro-2-propoxy-3-propyl-4-thioxo-thieno[2,3-d]pyrimidine], for which the control activity result in the data set on Uncinula necator is “complete control activity”.
Usually melting point stands for the temperature, or range, at which the solid turns liquid. In turn, `CCCOc1nc2sc(Br)cc2c(=S)n1CCC` [Compound 2, 6-bromo-2-propoxy-3-propyl-4-thioxo-thieno[2,3-d]pyrimidine] showed a melting point of 110 to 112 °C. For the same molecule, the control activity result with Uncinula necator was “complete control activity”.
`CCCCn1c(OCCC)nc2sc(Cl)cc2c1=S` [Compound 3, 3-butyl-6-chloro-2-propoxy-4-thioxo-thieno[2,3-d]pyrimidine]: the melting point lay within 68 to 70 °C. In addition, the control activity result with Uncinula necator is “complete control activity”.
As for `CCCCn1c(OCCC)nc2sc(Br)cc2c1=S` [Compound 4, 6-bromo-3-butyl-2-propoxy-4-thioxo-thieno[2,3-d]pyrimidine], the melting point fell in the range of 95 to 97 °C. Besides, the control activity entry with Uncinula necator is listed as “complete control activity”.
